Values joined by “and” are separate entries in the source; they are usually repeats but may differ in a detail not shown here. Equal values may be shown once. Read-outs that look alike come from different tables or passages of the source.
Tests used:
[1] = test system: primary hepatocytes of methylmalonic acidemia patients; assay: Propionyl-CoA and methylmalonyl-CoA from various sources in MMA primary hepatocytes (Examples 4, 5); type: cell-based, human; conditions: Homo sapiens, Hepatocyte
Protocol: (§1) Primary hepatocytes isolated from livers of methylmalonic acidemia patients are treated with increasing doses of compound 1 (0, 1, 3, 10, 30, 100, 300, 1000 μM) for 30 minutes. […] At the end of the challenge period, media is removed and the cells are lysed with 70% MCCN and 0.1% TFA containing 100 μM of ethymalonyl-CoA as an internal standard and harvested. Cell lysates are processed for HTMS/MS analysis.
as §1, with “compound 5” for “compound 1”, “(0, 0.1, 0.3,” for “(0,”, “30, 100” for “30, 100, 300, 1000”, “30 min.” for “30 minutes.”, “70% MeCN” for “70% MCCN”

PA primary hepatocytes = assay: HemoShear Technology, PA primary hepatocytes (Examples 10, 11); type: cell-based, human
Source text: For this experiment, we deployed the HemoShear REVEAL-Tx™ technology, which is based on the cone-and-plate configuration or viscometer combined with a porous polycarbonate membrane that mimics a filtering layer of sinusoidal endothelial cells (see: Dash A, Deering TG, Marukian S, et al. Physiological Hemodynamics and Transport Restore Insulin and Glucagon Responses in a Normal Glucose Milieu in Hepatocytes In Vitro. 73rd Scientific Sessions of the American Diabetes Association, 2013 (Chicago), and U.S. Pat. Nos. 7,811,782 and 9,500,642, and 9,617,521, each of which is incorporated by reference herein in its entirety).
Hepatocytes from propionic academia patients are plated in a collagen gel sandwich on one side of the membrane replicating the polarized orientation found in vivo within the hepatic sinusoids. On the other side, medium is continuously perfused and surface shear rates are applied across a range of physiological values derived from sinusoidal flow rates in vivo while also controlling transport in the system with in- and out-flow tubing to each compartment. Effectively, this creates a flow-based culture system where hepatocytes are shielded from direct effects of flow, as they would be in vivo, but perfusion, nutrient gradients, and interstitial fluid movement are maintained.
Biomarker levels are normalized to cell counts and cell volume to account for differences in the number of cells plated for each donor. […] This is most likely due to the presence of ^12C-succinyl-CoA in the sample, which has the same mass. In experiments described below, M-CoA is labeled with ^13C to determine a more accurate percent reduction. Compound 5 reduced the C3 concentration and the C3/C2 ratio with an EC50 similar to that for the reduction in P-CoA (FIGS. 7C, D).

MMA primary hepatocytes = assay: HemoShear Technology, MMA primary hepatocytes (Examples 10, 11); type: cell-based, human; conditions: for EC50 / EC90: Homo sapiens, Hepatocyte
clinical = assay: clinical; set-up: species or system human; conditions: in vivo; for AUC / Cmax: human
Protocol: In some embodiments, the method entails administering 2,2-dimethylbutyric acid, or a CoA ester or carnitine ester thereof, or a pharmaceutically acceptable salt, ester, or solvate thereof, at a concentration ranging from about, including about […] to 50 mg/kg.

[2] = PA pHeps, HemoShear, average ± SD
[3] = MMA pHeps, HemoShear, average ± SD

CCC(C)(C)C(=O)O [Compound 5, 2,2-dimethybutanoic acid]
EC50 ([1]; 100 μM 13C-heptanoate, read-out: concentration of methylmalonyl-CoA EC50): 0.02 µM
EC50 ([1]; 100 μM 13C-heptanoate, read-out: concentration of propionyl-CoA EC50): 3.84 µM
EC50 ([1]; 1 mM 13C-KIVA, read-out: concentration of methylmalonyl-CoA EC50): 1.17 µM
EC50 ([1]; 1 mM 13C-KIVA, read-out: concentration of propionyl-CoA EC50): 0.93 µM
EC50 ([1]; 3 mM 13C-ILE, read-out: concentration of methylmalonyl-CoA EC50): 1.38 µM
EC50 ([1]; 3 mM 13C-ILE, read-out: concentration of propionyl-CoA EC50): 2.04 µM
EC90 (PA primary hepatocytes; Homo sapiens, Hepatocyte, HemoShear, PA and MMA pHeps together, read-out: average EC90 value across all biomarkers): 17.1 ± 13.4 µM
EC50 (PA primary hepatocytes; Homo sapiens, Hepatocyte, PA donor 1, representative data (FIG. 7A), read-out: P-CoA reduction EC50): 1.84 µM
EC50 (PA primary hepatocytes; Homo sapiens, Hepatocyte, PA donor 1, representative data (FIG. 7E), read-out: MCA reduction EC50): 1.96 µM
EC50 (PA primary hepatocytes; Homo sapiens, Hepatocyte, PA pHeps, HemoShear, average ± SD, read-out: 2-Methylcitric acid (2MC) EC50): 1.1 ± 0.5 µM
EC90 (PA primary hepatocytes; Homo sapiens, Hepatocyte, PA pHeps, HemoShear, average ± SD, read-out: 2-Methylcitric acid (2MC) EC90): 7.9 ± 3.6 µM
EC50 (PA primary hepatocytes; Homo sapiens, Hepatocyte, PA pHeps, HemoShear, average ± SD, read-out: 12C-Acetyl-Camitine (C2) EC50): 4.8 ± 0.2 µM
EC90 (PA primary hepatocytes; Homo sapiens, Hepatocyte, PA pHeps, HemoShear, average ± SD, read-out: 12C-Acetyl-Camitine (C2) EC90): 20.7 ± 13.1 µM
EC50 (PA primary hepatocytes; Homo sapiens, Hepatocyte, PA pHeps, HemoShear, average ± SD, read-out: 12C-Propionyl-Carnitine (C3) EC50): 2.6 ± 1.9 µM
EC90 (PA primary hepatocytes; Homo sapiens, Hepatocyte, PA pHeps, HemoShear, average ± SD, read-out: 12C-Propionyl-Carnitine (C3) EC90): 30.8 ± 26.4 µM
EC50 (PA primary hepatocytes; Homo sapiens, Hepatocyte, PA pHeps, HemoShear, average ± SD, read-out: 12C-Propionyl-CoA (P-CoA) EC50): 1.9 ± 1 µM
EC90 (PA primary hepatocytes; Homo sapiens, Hepatocyte, PA pHeps, HemoShear, average ± SD, read-out: 12C-Propionyl-CoA (P-CoA) EC90): 18.4 ± 11.3 µM
EC50 (PA primary hepatocytes; Homo sapiens, Hepatocyte, PA pHeps, HemoShear, read-out: 12C-Acetyl-CoA EC50): 2.3 ± 1.9 µM
EC90 (PA primary hepatocytes; Homo sapiens, Hepatocyte, PA pHeps, HemoShear, read-out: 12C-Acetyl-CoA EC90): 14.4 ± 13.6 µM
EC50 (PA primary hepatocytes; Homo sapiens, Hepatocyte, PA pHeps, HemoShear, read-out: CoASH EC50): 11.6 ± 1.2 µM
EC90 (PA primary hepatocytes; Homo sapiens, Hepatocyte, PA pHeps, HemoShear, read-out: CoASH EC90): 29.8 ± 24.3 µM
EC50 (PA primary hepatocytes; Homo sapiens, Hepatocyte, PA pHeps, HemoShear, read-out: Compound 5-CoA (formation) EC50): 3 ± 1.5 µM
EC90 (PA primary hepatocytes; Homo sapiens, Hepatocyte, PA pHeps, HemoShear, read-out: Compound 5-CoA (formation) EC90): 47.1 ± 39.7 µM
12C-Acetyl-CoA Percent change at 30 μM (PA primary hepatocytes; PA pHeps, HemoShear): 54 ± 80.6%
CoASH Percent change at 30 μM (PA primary hepatocytes; PA pHeps, HemoShear): −31.3 ± 24.2%
average reduction in the C3/C2 ratio (PA primary hepatocytes; PA pHeps, HemoShear, at 30 μM): −2.1±1.2 log 2 fold change
2-Methylcitric acid (2MC) % change at 30 μM (PA primary hepatocytes; [2]): −78.6±12.9%
12C-Acetyl-Camitine (C2) % change at 30 μM (PA primary hepatocytes; [2]): 54 ± 80.6%
12C-Propionyl-Carnitine (C3) % change at 30 μM (PA primary hepatocytes; [2]): −68.9±14.6% and −69.4 ± 16.2%
12C-Propionyl-CoA (P-CoA) % change at 30 μM (PA primary hepatocytes; [2]): −78.8±10.9%
EC90 (PA primary hepatocytes; PA pHeps, HemoShear, average ± SD, read-out: 12C-Propionyl-Carnitine (C3) EC90): 32.1 ± 29.3 µM
EC50 (MMA primary hepatocytes; MMA donor 1, representative data (FIG. 7A), read-out: P-CoA reduction EC50): 3.9 µM
EC50 (MMA primary hepatocytes; MMA donor 1, representative data (FIG. 7B), read-out: M-CoA reduction EC50): 3.25 µM
EC50 (MMA primary hepatocytes; MMA donor 1, representative data (FIG. 7E), read-out: MCA reduction EC50): 1.66 µM
EC50 (MMA primary hepatocytes; MMA pHeps, HemoShear, average ± SD, read-out: 2-Methylcitric acid (2MC) EC50): 0.8 ± 0.5 µM
EC90 (MMA primary hepatocytes; MMA pHeps, HemoShear, average ± SD, read-out: 2-Methylcitric acid (2MC) EC90): 7.5 ± 6.4 µM
EC50 (MMA primary hepatocytes; MMA pHeps, HemoShear, average ± SD, read-out: 12C-Acetyl-Camitine (C2) EC50): 4.3 ± 2.2 µM
EC90 (MMA primary hepatocytes; MMA pHeps, HemoShear, average ± SD, read-out: 12C-Acetyl-Camitine (C2) EC90): 31.3 ± 26.9 µM
EC50 (MMA primary hepatocytes; MMA pHeps, HemoShear, average ± SD, read-out: 12C-Methylmalonyl-CoA (M-CoA) EC50): 2 ± 1.2 µM
EC90 (MMA primary hepatocytes; MMA pHeps, HemoShear, average ± SD, read-out: 12C-Methylmalonyl-CoA (M-CoA) EC90): 12.6 ± 12.9 µM
EC50 (MMA primary hepatocytes; MMA pHeps, HemoShear, average ± SD, read-out: 12C-Propionyl-Carnitine (C3) EC50): 1.4 ± 0.5 µM
EC90 (MMA primary hepatocytes; MMA pHeps, HemoShear, average ± SD, read-out: 12C-Propionyl-Carnitine (C3) EC90): 18.1 ± 16.2 µM
EC50 (MMA primary hepatocytes; MMA pHeps, HemoShear, average ± SD, read-out: 12C-Propionyl-CoA (P-CoA) EC50): 2.1 ± 1.5 µM
EC90 (MMA primary hepatocytes; MMA pHeps, HemoShear, average ± SD, read-out: 12C-Propionyl-CoA (P-CoA) EC90): 36.1 ± 30.1 µM
EC50 (MMA primary hepatocytes; MMA pHeps, HemoShear, read-out: CoASH EC50): 14.1 ± 8.4 µM
EC90 (MMA primary hepatocytes; MMA pHeps, HemoShear, read-out: CoASH EC90): 23.8 ± 20.2 µM
EC50 (MMA primary hepatocytes; MMA pHeps, HemoShear, read-out: Compound 5-CoA (formation) EC50): 3.5 ± 1.7 µM
EC90 (MMA primary hepatocytes; MMA pHeps, HemoShear, read-out: Compound 5-CoA (formation) EC90): 52.4 ± 45.6 µM
12C-Acetyl-CoA Percent change at 30 μM (MMA primary hepatocytes; MMA pHeps, HemoShear): 13.5 ± 24.9%
CoASH Percent change at 30 μM (MMA primary hepatocytes; MMA pHeps, HemoShear): −22.3 ± 22.3%
average reduction in the C3/C2 ratio (MMA primary hepatocytes; MMA pHeps, HemoShear, at 30 μM): −2.2±0.2 log 2 fold change
2-Methylcitric acid (2MC) % change at 30 μM (MMA primary hepatocytes; [3]): −66.7±14.9%
12C-Acetyl-Camitine (C2) % change at 30 μM (MMA primary hepatocytes; [3]): 44.6 ± 26.8%
12C-Methylmalonyl-CoA (M-CoA) % change at 30 μM (MMA primary hepatocytes; [3]): −55±6.6%
12C-Propionyl-Carnitine (C3) % change at 30 μM (MMA primary hepatocytes; [3]): −65.9±10.7%
12C-Propionyl-CoA (P-CoA) % change at 30 μM (MMA primary hepatocytes; [3]): −74.2±11.6%
AUC (clinical; 30 mg/kg): 2180 µg·h/mL
Cmax (clinical; 30 mg/kg): 156 µg/mL
AUC (clinical; 40 mg/kg): 2620 µg·h/mL
Cmax (clinical; 40 mg/kg): 203 µg/mL
AUC (clinical; 50 mg/kg): 3200 µg·h/mL
Cmax (clinical; 50 mg/kg): 256 µg/mL
Blood plasma concentrations following administration (dose dependence) (clinical): dose proportional

— patent publication US20220142955A1, “METHODS OF TREATING ORGANIC ACIDEMIAS” (HemoShear Therapeutics, Inc., priority 2019, published 2022)
